The values that follow come from US20200223837A1, “BENZOFURAN AMIDES AND HETEROAROMATIC ANALOGUES THEREOF FOR USE IN THERAPY” (European Molecular Biology Laboratory, priority 2017, published 2020).

The structures appear in SMILES notation.

Series [1] deals with A549 (lung adenocarcinoma) cells. Description: Glucose uptake in A549 cells. The series is classed as cell-based. How it is done:
Prompted by these observations, the glucose uptake and lactate excretion in HeLa cells treated for 16 hours with the compound of examples 64 was evaluated. […] A reduction in glucose uptake was also observed in A549 (lung adenocarcinoma) and HCT116 (colon adenocarcinoma) cells.

The test system of series [2] is A549 lung adenocarcinoma cells. Nature of the series: Growth of A549 cells in nude mice (xenograft). Conditions: 3 mg/kg and 10 mg/kg i.p. QD. The series is classed as in vivo. As to the method:
The following test can be conducted for determining, if administration of compounds influences the growth of A549 cells in nude mice, in comparison to solvent only and to carboplatin, a standard of care. An i.p. route of administration is evaluated at 10 and 3 mg/kg delivered i.p., q.d. and compared with solvent control and carboplatin at 75 mg/kg delivered Q7D4 ip. Eight mice are used per study condition.
Compounds are supplied as a dry powder. Each compound is first dissolved in DMSO to yield an appropriate concentration then mixed with 9 volumes of a previously prepared solution of Cremophor-EL: 5% Mannitol (1:8, v/v) warmed to 37° C. while vigorously vortexing. This mixture is sonicated in an ultrasonic bath heated to 40° C. for 15-20 min. The formulations are stable for 24 hours at ambient temperature. A working formulation batch is prepared immediately prior to the in vivo study. A dose volume of 5 ml/kg is used for each concentration and route of administration.
NMRI-nu/nu nude mice are injected subcutaneously in one flank with 5×10^6 A549 cells in 200 μl of DMEM prepared by trypsinizing an exponentially growing culture of cells. Tumours are allowed to develop to an approximate volume of 100 mm^3, (approximately one week after initiation) and thereafter treatment commenced. Body weights and tumour volume are determined every two days. […]

Consider `Cc1cnc(NC(=O)Cc2coc3cc4c(cc23)CCC4)s1` [Example 64, 2-(6,7-Dihydro-5H-cyclopenta[f]benzofuran-3-yl)-N-(5-methylthiazol-2-yl)acetamide], for which the glucose uptake result in series [1] is given as “reduction”. Also, in series [2], the “body weight or signs of toxicity” value is on record as “No significant changes in body weight or signs of toxicity were apparent”. Also, the “growth of A549 lung adenocarcinoma cells in nude mice” value in series [2] (performed as well as carboplatin) is recorded as “substantially prevented the growth”.
